The text below walks through data of DBAASP.

Converted amounts (≈) assume the structure as drawn.

What all share (assay): ≥ marks a high value that may be exact or a test limit, other limits are often not marked, values filed in µg/mL are converted to µM
The test system of assay [1] is Agrobacterium tumefaciens GV3101.
Assay [2] has as its system Methylobacterium sp.
In assay [3] the test system is Xanthomonas citri.
Assay [4] relates to Escherichia coli HP101BA 7601c.
Assay [5] relates to Klebsiella pneumoniae PTCC 1388.
Assay [6] deals with Staphylococcus aureus PTCC 1431.
In assay [7] the test system is Micrococcus luteus PTCC 1625.
In assay [8] the test system is Bacillus subtilis 168.
Assay [9] deals with Staphylococcus aureus USA 300.
Assay [10] deals with Staphylococcus epidermidis 1457.
Assay [11] deals with Staphylococcus aureus UAMS-1.
Assay [12] relates to Staphylococcus aureus ATCC 25923.
The test system of assay [13] is Staphylococcus aureus MU50.
For assay [14], the system named is Escherichia coli ATCC 25726.
In assay [15] the test system is Escherichia coli ATCC 25922.
Assay [16] concerns Candida glabrata ATCC 2001.
For assay [17], the system named is Candida albicans ATCC 90028.
Assay [18] deals with Staphylococcus aureus USA 400.
The subject of assay [19] is Staphylococcus aureus Newman.
For assay [20], the system named is Staphylococcus aureus USA 200.
Assay [21] has as its system Candida albicans ATCC 10231.
Assay [22] deals with Klebsiella pneumoniae ATCC 13883.
The subject of assay [23] is Candida tropicalis ATCC 13803.
For assay [24], the system named is Pseudomonas aeruginosa PAO1.
Assay [25] concerns Streptococcus mutans ATCC 25175.
The test system of assay [26] is Saccharomyces cerevisiae ATCC 44774.
Assay [27] concerns Bacillus subtilis ATCC 62037.
Assay [28] relates to Staphylococcus aureus ATCC 15752.
Assay [29] has as its system Cryptococcus neoformans ATCC 34881.
The subject of assay [30] is Serratia sp. ATCC 21074.
Assay [31] deals with Escherichia coli ATCC 27325.
Assay [32] deals with Pseudomonas putida ATCC 17426.
Assay [33] has as its system Acinetobacter baumannii ATCC 19606.
Assay [34] concerns Pseudomonas aeruginosa CUN 4158-02.
Assay [35] concerns Staphylococcus aureus ATCC 43300.
The subject of assay [36] is Stenotrophomonas maltophilia CUN 3998-00.
The subject of assay [37] is Bordetella bronchiseptica CUN 11844-99.
The subject of assay [38] is Pseudomonas aeruginosa ATCC 27853.
In assay [39] the test system is Staphylococcus aureus CUN 3792-99.

For the molecule `CC[C@H](C)[C@H](N)C(=O)N[C@@H](Cc1ccccc1)C(=O)NCC(=O)N[C@@H](C)C(=O)N[C@H](C(=O)N[C@@H](CC(C)C)C(=O)N1CCC[C@H]1C(=O)N[C@@H](CC(C)C)C(=O)N[C@@H](C)C(=O)N[C@@H](CC(C)C)C(=O)NCC(=O)N[C@@H](C)C(=O)N[C@@H](CC(C)C)C(=O)N[C@@H](CCCCN)C(=O)N[C@@H](CC(N)=O)C(=O)N[C@@H](CC(C)C)C(=O)N[C@H](C(=O)N[C@@H](CCCCN)C(=O)O)[C@@H](C)CC)[C@@H](C)CC` [IFGAILPLALGALKNLIK], the minimum inhibitory concentration (MIC) amounted to 17 µM (≈ 31.7 µg/mL) in assay [1], 9 µM (≈ 16.8 µg/mL) in [2] and 4 µM (≈ 7.46 µg/mL) in [3].
In the case of `CC(C)C[C@H](NC(=O)[C@H](C)NC(=O)[C@H](CC(N)=O)NC(=O)[C@H](CC(C)C)NC(=O)[C@@H](N)Cc1ccccc1)C(=O)N[C@@H](CCCCN)C(=O)N[C@@H](CC(N)=O)C(=O)N[C@@H](Cc1ccccc1)C(=O)N[C@@H](C)C(=O)N[C@@H](CCCCN)C(=O)N[C@H](C(=O)N[C@@H](C)C(=O)NCC(=O)N[C@@H](CCCCN)C(=O)N[C@@H](CCCN=C(N)N)C(=O)N[C@@H](CC(C)C)C(=O)N[C@@H](CCCCN)C(=O)N[C@@H](CO)C(=O)N[C@@H](CC(C)C)C(=O)N[C@@H](CC(C)C)C(=O)N[C@@H](CC(N)=O)C(=O)O)[C@@H](C)O` [FLNALKNFAKTAGKRLKSLLN], the MIC in [4] was 6.4 µM (≈ 15 µg/mL); in assay [5], 7.3 µM (≈ 17.1 µg/mL); in assay [6], 5.3 µM (≈ 12.4 µg/mL); in assay [7], 4.7 µM (≈ 11 µg/mL).
For `CC[C@H](C)[C@H](N)C(=O)N1CCC[C@H]1C(=O)N1CCC[C@H]1C(=O)N[C@@H](Cc1ccccc1)C(=O)N[C@H](C(=O)N[C@@H](CCCCN)C(=O)N[C@@H](CCCCN)C(=O)N[C@H](C(=O)N[C@@H](CC(C)C)C(=O)N[C@H](C(=O)N[C@H](C(=O)N[C@H](C(=O)N[C@@H](Cc1ccccc1)C(N)=O)C(C)C)[C@@H](C)O)[C@@H](C)O)C(C)C)[C@@H](C)CC` [IPPFIKKVLTTVF], the MIC in assay [8] was at least 50 µM; in [9], 25 µM (≈ 37.5 µg/mL); in [10], 12.5 µM (≈ 18.8 µg/mL); in assay [11], 25 µM (≈ 37.5 µg/mL); in [12], 50 µM (≈ 75.1 µg/mL); in assay [13] it was 25 µM (≈ 37.5 µg/mL). For the same molecule, the MIC was determined as 25 µM (≈ 37.5 µg/mL) in [14]; 12.5 µM (≈ 18.8 µg/mL) in [15]; 12.5 µM (≈ 18.8 µg/mL) in [16]; 25 µM (≈ 37.5 µg/mL) in [17]; 25 µM (≈ 37.5 µg/mL) in assay [18]; 25 µM (≈ 37.5 µg/mL) in [19]. Moreover, the MIC in assay [20] was 25 µM (≈ 37.5 µg/mL); in assay [21], 25 µM (≈ 37.5 µg/mL); in [22], at least 50 µM; in assay [23], 4.38 µM (≈ 6.58 µg/mL); in assay [24] it was over 50 µM.
On to `CC[C@H](C)[C@H](NC(=O)[C@H](CCCN=C(N)N)NC(=O)[C@H](CCC(=O)O)NC(=O)[C@@H]1CCCN1C(=O)[C@@H]1CCCN1C(=O)[C@H](Cc1ccc(O)cc1)NC(=O)[C@H](CC(C)C)NC(=O)[C@H](Cc1ccccc1)NC(=O)[C@H](CCC(N)=O)NC(=O)[C@@H]1CCCN1C(=O)CNC(=O)[C@@H](NC(=O)[C@H](Cc1ccc(O)cc1)NC(=O)[C@H](CCC(N)=O)NC(=O)[C@H](CC(N)=O)NC(=O)[C@H](CCCCN)NC(=O)[C@H](CCCN=C(N)N)NC(=O)[C@H](CCC(=O)O)NC(=O)[C@H](CO)NC(=O)[C@H](Cc1ccc(O)cc1)NC(=O)[C@@H]1CCCN1C(=O)[C@H](CCCN=C(N)N)NC(=O)[C@H](CCCCN)NC(=O)[C@H](CC(=O)O)NC(=O)[C@H](CCCCN)NC(=O)[C@H](CCC(N)=O)NC(=O)[C@@H](N)CCCN=C(N)N)[C@@H](C)O)C(=O)N1CCC[C@H]1C(=O)N1CCC[C@H]1C(=O)O` [RQKDKRPYSERKNQYTGPQFLYPPERIPP], for which the MIC in [25] turned out to be 5.57 µM (≈ 20 µg/mL); in [26], 2.23 µM (≈ 8 µg/mL); in assay [27] it was 2.23 µM (≈ 8 µg/mL); in [28], 3.34 µM (≈ 12 µg/mL); in assay [29], 4.46 µM (≈ 16 µg/mL); in assay [30] it was 3.34 µM (≈ 12 µg/mL). Also, the values for the MIC in assay [31], in [21] and in [32] were 2.23 µM (≈ 8 µg/mL), 3.34 µM (≈ 12 µg/mL) and 3.34 µM (≈ 12 µg/mL), respectively.
On to `NCCCC[C@H](NC(=O)CNC(=O)[C@H](CCCN=C(N)N)NC(=O)[C@H](Cc1ccc(O)cc1)NC(=O)[C@H](CCCN=C(N)N)NC(=O)[C@H](Cc1c[nH]c2ccccc12)NC(=O)[C@H](CCCN=C(N)N)NC(=O)[C@H](Cc1ccccc1)NC(=O)[C@H](CCCCN)NC(=O)[C@H](CCCCN)NC(=O)[C@H](Cc1c[nH]c2ccccc12)NC(=O)[C@H](CCCN=C(N)N)NC(=O)[C@H](CCCN=C(N)N)NC(=O)[C@H](CS)NC(=O)CN)C(=O)N[C@@H](Cc1ccccc1)C(=O)N[C@@H](Cc1c[nH]c2ccccc12)C(=O)N[C@@H](Cc1ccccc1)C(=O)N[C@@H](Cc1c[nH]c2ccccc12)C(=O)N[C@@H](CS)C(=O)NCC(N)=O` [GCRRWKKFRWRYRGKFWFWCG], for which the minimum inhibitory concentration (MIC) in [33] is 22 µM (≈ 64 µg/mL); in assay [12], 22 µM (≈ 64 µg/mL); in [34] it was at least 44 µM; in [35], 11 µM (≈ 32 µg/mL); in assay [36], 22 µM (≈ 64 µg/mL); in assay [37], 11 µM (≈ 32 µg/mL). In addition, the MIC is 44 µM (≈ 128 µg/mL) in assay [15], 44 µM (≈ 128 µg/mL) in assay [38] and 22 µM (≈ 64 µg/mL) in [39].

One may read the MIC as the least concentration at which growth counts as inhibited. Low values mean inhibition by little substance, high ones a need for much substance.
